Measurements: patent US20090221560A1, “Pharmaceutical Formulation” (priority 2005, published 2009)

Tests used:
5-HT-2 receptor = target: T1, 5-HT-2 receptor (Rattus norvegicus, UniProt P14842); assay: Displacement of H-spiperone from binding sites in the rat frontal cortex
T1 construct: from tissue; host or cells: rat frontal cortex
Text: (§1) In addition, the compound of formula I and of formula II also show good activity in in vitro binding assays involving binding to neural receptors. […] The compounds are also active at the 5-HT-IC receptor.

dopamine D-2 receptor = dopamine D-2 receptor (Homo sapiens, UniProt P14416); assay: 3H-spiperone binding assay
Text: as §1

5-HT-IC receptor = target: T2, 5-HT-IC receptor (Homo sapiens, UniProt P28335); assay: Activity at the 5-HT-IC receptor; assay type: binding
T2 sequence (P28335 33-458): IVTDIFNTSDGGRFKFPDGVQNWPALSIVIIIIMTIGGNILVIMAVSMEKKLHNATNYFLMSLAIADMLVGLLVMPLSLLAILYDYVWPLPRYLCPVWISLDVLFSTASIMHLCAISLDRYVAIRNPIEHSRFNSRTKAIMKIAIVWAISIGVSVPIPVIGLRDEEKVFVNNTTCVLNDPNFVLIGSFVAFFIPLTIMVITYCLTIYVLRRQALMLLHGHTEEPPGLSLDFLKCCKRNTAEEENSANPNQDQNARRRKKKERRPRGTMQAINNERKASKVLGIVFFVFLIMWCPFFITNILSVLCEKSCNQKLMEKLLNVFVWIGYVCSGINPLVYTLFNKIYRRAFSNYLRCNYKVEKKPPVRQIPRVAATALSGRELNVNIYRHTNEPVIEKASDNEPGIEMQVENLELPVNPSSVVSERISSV
Text: as §1

rats [1] = assay: Catalepsy induction in rats; assay type: in vivo; conditions: at the low dose inhibiting conditioned avoidance response
rats [2] = assay: Conditioned avoidance response in rats; assay type: in vivo; conditions: Rattus norvegicus, read-out: ED50, inhibition of conditioned avoidance response

Sequence of dopamine D-2 receptor (P14416 whole entry): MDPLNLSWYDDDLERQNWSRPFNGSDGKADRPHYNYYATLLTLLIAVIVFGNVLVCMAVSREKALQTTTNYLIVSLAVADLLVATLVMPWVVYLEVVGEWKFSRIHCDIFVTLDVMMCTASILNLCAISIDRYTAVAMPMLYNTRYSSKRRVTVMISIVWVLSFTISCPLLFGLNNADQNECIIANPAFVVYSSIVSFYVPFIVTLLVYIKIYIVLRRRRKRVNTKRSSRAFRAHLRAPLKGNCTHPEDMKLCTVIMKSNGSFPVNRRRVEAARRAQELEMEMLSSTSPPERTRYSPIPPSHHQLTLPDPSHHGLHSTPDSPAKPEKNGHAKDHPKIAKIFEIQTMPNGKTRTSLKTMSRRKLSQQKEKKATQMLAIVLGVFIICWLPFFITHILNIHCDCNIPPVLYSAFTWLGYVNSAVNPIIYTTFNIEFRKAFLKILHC
T1 sequence (P14842 whole entry): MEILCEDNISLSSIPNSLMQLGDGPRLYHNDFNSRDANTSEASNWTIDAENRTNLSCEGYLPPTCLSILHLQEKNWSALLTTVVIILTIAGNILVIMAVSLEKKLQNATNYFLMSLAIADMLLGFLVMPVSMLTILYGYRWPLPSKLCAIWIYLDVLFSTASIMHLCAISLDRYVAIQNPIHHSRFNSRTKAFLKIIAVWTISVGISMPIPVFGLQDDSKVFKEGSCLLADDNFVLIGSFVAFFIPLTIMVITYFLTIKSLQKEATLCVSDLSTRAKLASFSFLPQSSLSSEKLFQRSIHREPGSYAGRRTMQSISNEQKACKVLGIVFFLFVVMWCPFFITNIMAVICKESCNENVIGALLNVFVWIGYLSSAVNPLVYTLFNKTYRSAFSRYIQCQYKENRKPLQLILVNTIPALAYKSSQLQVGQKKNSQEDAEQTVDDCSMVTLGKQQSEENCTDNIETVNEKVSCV

| SMILES | Concentration displacing H-spiperone at the 5-HT-2 receptor (5-HT-2 receptor) | IC50 (dopamine D-2 receptor) | Activity at the 5-HT-IC receptor (5-HT-IC receptor) | Catalepsy (rats [1]) | ED50 (rats [2]) |
| --- | --- | --- | --- | --- | --- |
| CC(=O)N1CCN(C2=Nc3ccccc3Nc3sc(C)cc32)CC1 [formula II, 2-methyl-4-(4-acetyl-1-piperazinyl)-10H-thieno-[2,3-b][1,5]-benzodiazepine] | low nanomolar concentrations | < 1 µM | active | without inducing catalepsy | ~5 mg/kg |
| Cc1cc2c(s1)Nc1ccccc1N=C2N1CC[N+](C)(CCl)CC1 [formula I, 2-methyl-4-(4-methyl-4-chloromethyl-1-piperazinyl)-10H-thieno-[2,3-b][1,5]-benzodiazepine] | low nanomolar concentrations | < 1 µM | active | without inducing catalepsy | ~5 mg/kg |
